Target: CSF-1R (Homo sapiens, UniProt P07333)
Test: Peptide (non-phosphorylated) assay, fluorescence polarization competition immunoassay
Assay type: biochemical
Conditions: 0.7 nM CSF-1R, 308 μM SYEGNSYTFIDPTQ peptide, 1 mM ATP, 80 min; mean of at least three determinations; read-out: c-fms Peptide IC50
Method in brief: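 Human CSF-1R kinase reaction started with ATP and run 80 min at room temperature, then stopped with EDTA. Phosphopeptide detected by fluorescence polarization competition using anti-phosphotyrosine antibody and PTK green tracer after 30 min. Controls used 4% DMSO, with EDTA added before reaction start for positive controls.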

Chain of CSF-1R (P07333 20-972): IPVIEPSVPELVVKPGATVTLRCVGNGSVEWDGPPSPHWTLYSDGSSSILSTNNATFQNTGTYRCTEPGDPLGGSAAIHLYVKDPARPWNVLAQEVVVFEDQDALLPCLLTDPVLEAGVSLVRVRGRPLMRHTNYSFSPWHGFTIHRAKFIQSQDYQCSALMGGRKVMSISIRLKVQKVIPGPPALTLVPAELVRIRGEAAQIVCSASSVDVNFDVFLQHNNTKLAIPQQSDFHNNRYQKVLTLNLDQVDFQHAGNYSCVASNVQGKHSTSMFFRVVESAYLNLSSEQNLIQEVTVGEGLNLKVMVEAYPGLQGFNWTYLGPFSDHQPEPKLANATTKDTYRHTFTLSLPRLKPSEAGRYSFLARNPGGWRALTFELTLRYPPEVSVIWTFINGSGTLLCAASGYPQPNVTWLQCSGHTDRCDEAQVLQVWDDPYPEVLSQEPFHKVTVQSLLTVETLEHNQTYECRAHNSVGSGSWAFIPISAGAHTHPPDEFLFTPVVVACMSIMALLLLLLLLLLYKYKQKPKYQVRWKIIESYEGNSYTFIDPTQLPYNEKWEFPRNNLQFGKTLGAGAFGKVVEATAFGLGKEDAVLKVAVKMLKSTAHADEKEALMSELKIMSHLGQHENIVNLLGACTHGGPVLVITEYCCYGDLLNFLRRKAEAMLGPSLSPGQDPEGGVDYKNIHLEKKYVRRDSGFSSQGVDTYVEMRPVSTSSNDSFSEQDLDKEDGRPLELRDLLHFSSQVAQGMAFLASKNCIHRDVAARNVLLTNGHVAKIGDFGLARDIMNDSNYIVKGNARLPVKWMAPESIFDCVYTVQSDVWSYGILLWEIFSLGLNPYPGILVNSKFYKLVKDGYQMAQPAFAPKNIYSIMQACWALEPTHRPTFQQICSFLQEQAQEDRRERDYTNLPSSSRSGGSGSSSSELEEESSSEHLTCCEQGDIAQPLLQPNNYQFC

Structure (SMILES) | IC50 [nM]
CONC(=O)c1cn(-c2ccc(F)c(Cl)c2)c2nc(Nc3ccc(CCN4CCN(C)CC4)cc3)ncc2c1=O [Cpd 4, 8-(3-chloro-4-fluoro-phenyl)-2-{4-[2-(4-methyl-piperazin-1-yl)-ethyl]-phenylamino}-5-oxo-5,8-dihydro-pyrido[2,3-d]pyrimidine-6-carboxylic acid methoxy amide] | 2.2
CC(C)ONC(=O)c1cn(C2CC2)c2nc(Nc3ccc(CCN4CCCC4)cc3)ncc2c1=O [Cpd 143, 8-cyclopropyl-5-oxo-2-[4-(2-pyrrolidin-1-yl-ethyl)-phenylamino]-5,8-dihydro-pyrido[2,3-d]pyrimidine-6-carboxylic acid isopropoxy-amide] | 130
CONC(=O)c1cn(-c2ccc3c(c2)CCC3)c2nc(Nc3cccc(N4CCN(S(C)(=O)=O)CC4)c3)ncc2c1=O [Cpd 201, 8-indan-5-yl-2-[3-(4-methanesulfonyl-piperazin-1-yl)-phenylamino]-5-oxo-5,8-dihydro-pyrido[2,3-d]pyrimidine-6-carboxylic acid methoxy-amide] | 1.8
CN1CCN(CCc2ccc(Nc3ncc4c(=O)c(C(=O)NCCO)cn(-c5ccc6c(c5)CCC6)c4n3)cc2)CC1 [Cpd 65, 8-indan-5-yl-2-{4-[2-(4-methyl-piperazin-1-yl)-ethyl]-phenylamino}-5-oxo-5,8-dihydro-pyrido[2,3-d]pyrimidine-6-carboxylic acid (2-hydroxy-ethyl)-amide] | 0.68
CCc1ccc(-n2cc(C(=O)NOC)c(=O)c3cnc(Nc4ccc(CCN5CCC5)cc4)nc32)cc1 [Cpd 260, 2-[4-(2-azetidin-1-yl-ethyl)-phenylamino]-8-(4-ethyl-phenyl)-5-oxo-5,8-dihydro-pyrido[2,3-d]pyrimidine-6-carboxylic acid methoxy-amide] | 0.61
C#Cc1ccc(-n2cc(C(=O)NOC)c(=O)c3cnc(Nc4ccc(CCN5CCN(C)CC5)cc4)nc32)cc1 [Cpd 31, 8-(4-ethynyl-phenyl)-2-{4-[2-(4-methyl-piperazin-1-yl)-ethyl]-phenylamino}-5-oxo-5,8-dihydro-pyrido[2,3-d]pyrimidine-6-carboxylic acid methoxy-amide] | 2.6
COCCc1ccc(Nc2ncc3c(=O)c(C(=O)NOC)cn(-c4ccc5c(c4)CCC5)c3n2)cc1 [Cpd 81, 8-indan-5-yl-2-[4-(2-methoxy-ethyl)-phenylamino]-5-oxo-5,8-dihydro-pyrido[2,3-d]pyrimidine-6-carboxylic acid methoxy-amide] | 3
CONC(=O)c1cn(C2CCCCC2)c2nc(Nc3ccc(C4CCN(C)CC4)cc3)ncc2c1=O [Cpd 140, 8-cyclohexyl-2-[4-(1-methyl-piperidin-4-yl)-phenylamino]-5-oxo-5,8-dihydro-pyrido[2,3-d]pyrimidine-6-carboxylic acid methoxy-amide] | 4.8
CCN1CCCC1CNC(=O)c1cccc(Nc2ncc3c(=O)c(C(=O)NOC)cn(-c4ccc5c(c4)CCC5)c3n2)c1 (stereo not shown) [Cpd 193, 2-{3-[(1-ethyl-pyrrolidin-2-ylmethyl)-carbamoyl]-phenylamino}-8-indan-5-yl-5-oxo-5,8-dihydro-pyrido[2,3-d]pyrimidine-6-carboxylic acid methoxy-amide] | 2.5
CONC(=O)c1cn(-c2ccc3c(c2)CCC3)c2nc(Nc3ccc(CCN4CCNCC4)cc3)ncc2c1=O [Cpd 144, 8-indan-5-yl-5-oxo-2-[4-(2-piperazin-1-yl-ethyl)-phenylamino]-5,8-dihydro-pyrido[2,3-d]pyrimidine-6-carboxylic acid methoxy-amide] | 0.4
CCc1ccc(-n2cc(C(=O)NOC)c(=O)c3cnc(Nc4ccc5c(c4)OCCOCCOCCOCCOCCO5)nc32)cc1 [Cpd 294, 2-(6,7,9,10,12,13,15,16,18,19-decahydro-5,8,11,14,17,20-hexaoxa-benzocyclooctadecen-2-ylamino)-8-(4-ethyl-phenyl)-5-oxo-5,8-dihydro-pyrido[2,3-d]pyrimidine-6-carboxylic acid methoxy-amide] | 0.4
CCONC(=O)c1cn(-c2ccc(C)c(C)c2)c2nc(Nc3ccc(CCN4CCN(C)CC4)cc3)ncc2c1=O [Cpd 53, 8-(3,4-dimethyl-phenyl)-2-{4-[2-(4-methyl-piperazin-1-yl)-ethyl]-phenylamino}-5-oxo-5,8-dihydro-pyrido[2,3-d]pyrimidine-6-carboxylic acid ethoxy-amide] | 0.5
CCc1ccc(-n2cc(C(=O)NOC(C)C)c(=O)c3cnc(Nc4ccc(C5CCNCC5)cc4)nc32)cc1 [Cpd 58, 8-(4-ethyl-phenyl)-5-oxo-2-(4-piperidin-4-yl-phenylamino)-5,8-dihydro-pyrido[2,3-d]pyrimidine-6-carboxylic acid isopropoxy-amide] | 1.6
CONC(=O)c1cn(-c2ccc3c(c2)CCC3)c2nc(Nc3ccc4c(ccn4C)c3)ncc2c1=O [Cpd 291, 8-indan-5-yl-2-(1-methyl-1H-indol-5-ylamino)-5-oxo-5,8-dihydro-pyrido[2,3-d]pyrimidine-6-carboxylic acid methoxy-amide] | 1.3
CONC(=O)c1cn(C2CCC(C)(C)CC2)c2nc(Nc3ccc(C4CCN(CCO)CC4)cc3)ncc2c1=O [Cpd 210, 8-(4,4-dimethyl-cyclohexyl)-2-{4-[1-(2-hydroxy-ethyl)-piperidin-4-yl]-phenylamino}-5-oxo-5,8-dihydro-pyrido[2,3-d]pyrimidine-6-carboxylic acid methoxy-amide] | 0.25
CCc1ccc(-n2cc(C(=O)NOC)c(=O)c3cnc(Nc4ccc(OCCOC)c(OCCOC)c4)nc32)cc1 [Cpd 308, 2-[3,4-bis-(2-methoxy-ethoxy)-phenylamino]-8-(4-ethyl-phenyl)-5-oxo-5,8-dihydro-pyrido[2,3-d]pyrimidine-6-carboxylic acid methoxy-amide] | 0.9
CCc1ccc(-n2cc(C(=O)NOC)c(=O)c3cnc(Nc4ccc(C5CCN(CCCO)CC5)cc4)nc32)cc1 [Cpd 185, 8-(4-ethyl-phenyl)-2-{4-[1-(3-hydroxy-propyl)-piperidin-4-yl]-phenylamino}-5-oxo-5,8-dihydro-pyrido[2,3-d]pyrimidine-6-carboxylic acid methoxy-amide] | 0.6
CONC(=O)c1cn(-c2ccc3c(c2)CCC3)c2nc(Nc3cccc(N4CCN(C)CC4)c3)ncc2c1=O [Cpd 324, 8-indan-5-yl-2-[3-(4-methyl-piperazin-1-yl)-phenylamino]-5-oxo-5,8-dihydro-pyrido[2,3-d]pyrimidine-6-carboxylic acid methoxy-amide] | 0.5
CONC(=O)c1cn(-c2ccc3c(c2)CCC3)c2nc(Nc3cccc(OC4CN5CCC4CC5)c3)ncc2c1=O (stereo not shown) [Cpd 267, 2-[3-(1-aza-bicyclo[2.2.2]oct-3-yloxy)-phenylamino]-8-indan-5-yl-5-oxo-5,8-dihydro-pyrido[2,3-d]pyrimidine-6-carboxylic acid methoxy-amide] | 0.42
CCc1ccc(-n2cc(C(=O)NOC)c(=O)c3cnc(Nc4ccc(NCCS(C)(=O)=O)cc4)nc32)cc1 [Cpd 217, 8-(4-ethyl-phenyl)-2-[4-(2-methanesulfonyl-ethylamino)-phenylamino]-5-oxo-5,8-dihydro-pyrido[2,3-d]pyrimidine-6-carboxylic acid methoxy-amide] | 0.62
CONC(=O)c1cn(-c2ccc3c(c2)CCC3)c2nc(Nc3ccc(OC4CCN(C)CC4)cc3)ncc2c1=O [Cpd 313, 8-indan-5-yl-2-[4-(1-methyl-piperidin-4-yloxy)-phenylamino]-5-oxo-5,8-dihydro-pyrido[2,3-d]pyrimidine-6-carboxylic acid methoxy-amide] | 0.3
CCc1ccc(-n2cc(C(=O)NOC)c(=O)c3cnc(Nc4cccc(NC(=O)CN(C)C)c4)nc32)cc1 [Cpd 228, 2-[3-(2-dimethylamino-acetylamino)-phenylamino]-8-(4-ethyl-phenyl)-5-oxo-5,8-dihydro-pyrido[2,3-d]pyrimidine-6-carboxylic acid methoxy-amide] | 0.68
CONC(=O)c1cn(-c2ccc3c(c2)CCC3)c2nc(Nc3ccccc3)ncc2c1=O [Cpd 300, 8-indan-5-yl-5-oxo-2-phenylamino-5,8-dihydro-pyrido[2,3-d]pyrimidine-6-carboxylic acid methoxy-amide] | 1.5
CONC(=O)c1cn(-c2ccc3c(c2)CCC3)c2nc(Nc3ccc(CCN4CC[C@@H](F)C4)cc3)ncc2c1=O [Cpd 252, 2-(4-{2-[(3R)-(3-fluoro-pyrrolidin-1-yl)]-ethyl}-phenylamino)-8-indan-5-yl-5-oxo-5,8-dihydro-pyrido[2,3-d]pyrimidine-6-carboxylic acid methoxy-amide] | 0.57
CCc1ccc(-n2cc(C(=O)NOC)c(=O)c3cnc(Nc4ccc([C@]5(O)CCN(C)C[C@H]5O)cc4)nc32)cc1 [Cpd 249, 2-{4-[(3R,4R)-(3,4-dihydroxy-1-methyl-piperidin-4-yl)]-phenylamino}-8-(4-ethyl-phenyl)-5-oxo-5,8-dihydro-pyrido[2,3-d]pyrimidine-6-carboxylic acid methoxy-amide] | 0.55
CONC(=O)c1cn(C2CCCC2)c2nc(Nc3ccc(C(=O)N4CCCC4)cc3)ncc2c1=O [Cpd 36, 8-cyclopentyl-5-oxo-2-[4-(pyrrolidine-1-carbonyl)-phenylamino]-5,8-dihydro-pyrido[2,3-d]pyrimidine-6-carboxylic acid methoxy-amide] | 2.1
CCc1ccc(-n2cc(C(=O)NOC(CC)CC)c(=O)c3cnc(Nc4ccc(CCN5CCN(C)CC5)cc4)nc32)cc1 [Cpd 93, 8-(4-ethyl-phenyl)-2-{4-[2-(4-methyl-piperazin-1-yl)-ethyl]-phenylamino}-5-oxo-5,8-dihydro-pyrido[2,3-d]pyrimidine-6-carboxylic acid (1-ethyl-propoxy)-amide] | 4.9
CCc1ccc(-n2cc(C(=O)NOC)c(=O)c3cnc(Nc4ccc5c(c4)CCN5C(C)=O)nc32)cc1 [Cpd 279, 2-(1-acetyl-2,3-dihydro-1H-indol-5-ylamino)-8-(4-ethyl-phenyl)-5-oxo-5,8-dihydro-pyrido[2,3-d]pyrimidine-6-carboxylic acid methoxy-amide] | 0.3

Source: patent publication US20080114007A1 (priority 2006, published 2008)
